# Assay results: PMC3433420 (PLoS ONE, 2012)
# Residues, ends and D or L forms follow the SMILES beside them.
# Assays:
# [1] = target: T1, RASA1-N SH2 domain (Homo sapiens, UniProt P20936); experiment: FP saturation binding assay
# T1 sequence (P20936 181-272 limits assumed): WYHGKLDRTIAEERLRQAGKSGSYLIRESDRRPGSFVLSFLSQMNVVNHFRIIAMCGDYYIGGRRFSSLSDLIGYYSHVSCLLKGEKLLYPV
# [2] = target: PIK3R2-N SH2 domain (Homo sapiens, UniProt O00459); experiment: FP saturation binding assay
# [3] = target: PIK3R2-NC tandem SH2 domains (Homo sapiens, UniProt O00459); experiment: FP saturation binding assay
# [4] = target: T2, PIK3R3-NC tandem SH2 domains (Homo sapiens, UniProt Q92569); experiment: FP saturation binding assay; settings: high-confidence ErbB interactions
# T2 construct: the tandem protein was included in our analysis with all internal amino acids linking the domains; 6X His; thioredoxin; made in house; host or cells: E. coli BL21(DE3)pLysS
# Method in brief: (§1)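 Rhodamine-labeled peptides (10 nM final) were titrated with 12 SH2 domain concentrations (0.002–10 µM) in 20 mM HEPES, 100 mM KCl, 0.1% Tween-20, 5 mM DTT, pH 7.8. After 20 min at room temperature in the dark, FP (ex 530/em 555 nm) was read. KDs came from nonlinear least-squares fits.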
# [5] = target: T3, RASA1-NC tandem SH2 domains (Homo sapiens, UniProt P20936); experiment: FP saturation binding assay; settings: Protein RASA1-NC; FP saturation binding, high-confidence ErbB interactions; mean over replicate hits
# T3 construct: the tandem protein was included in our analysis with all internal amino acids linking the domains; 6X His; thioredoxin; made in house; host or cells: E. coli BL21(DE3)pLysS
# T3 sequence (P20936 181-441 limits assumed): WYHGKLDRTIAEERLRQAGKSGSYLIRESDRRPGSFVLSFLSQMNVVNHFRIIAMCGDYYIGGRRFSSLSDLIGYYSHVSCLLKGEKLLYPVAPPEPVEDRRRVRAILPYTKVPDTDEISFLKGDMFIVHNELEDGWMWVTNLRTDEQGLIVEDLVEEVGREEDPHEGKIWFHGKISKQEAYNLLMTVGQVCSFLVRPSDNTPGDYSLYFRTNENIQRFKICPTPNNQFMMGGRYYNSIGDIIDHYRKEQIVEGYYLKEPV
# Method in brief: as §1
# [6] = target: T4, YES1 SH2 domain (Homo sapiens, UniProt P07947); experiment: FP saturation binding assay; settings: high-confidence ErbB interactions
# T4 construct: 6X His; thioredoxin; made in house; host or cells: BL21(DE3)pLysS E. coli
# Method in brief: as §1
# [7] = target: T5, LCK SH2 domain (Homo sapiens, UniProt P06239); experiment: FP saturation binding assay; settings: Protein LCK; FP saturation binding, high-confidence ErbB interactions; mean over replicate hits
# T5 construct: 93 SH2 and 2 PTB domain-containing constructs; 6X His; thioredoxin; made in house; host or cells: E. coli BL21(DE3)pLysS
# Method in brief: as §1
# [8] = target: T6, PTPN11-N SH2 domain (Homo sapiens, UniProt Q06124); experiment: FP saturation binding assay
# T6 sequence (Q06124 6-102 limits assumed): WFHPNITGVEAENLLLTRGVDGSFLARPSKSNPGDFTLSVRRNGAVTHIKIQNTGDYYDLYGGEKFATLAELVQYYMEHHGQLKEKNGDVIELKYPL
# [9] = target: T7, SH2D1B SH2 domain (Homo sapiens, UniProt O14796); experiment: FP saturation binding assay
# T7 sequence (O14796 5-101 limits assumed): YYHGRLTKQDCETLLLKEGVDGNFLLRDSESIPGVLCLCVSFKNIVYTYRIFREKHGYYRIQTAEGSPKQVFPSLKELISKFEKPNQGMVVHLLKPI
# [10] = target: T8, PTK6 SH2 domain (Homo sapiens, UniProt Q13882); experiment: FP saturation binding assay; settings: high-confidence ErbB interactions
# T8 construct: from the PTK6 SH2 domain; 6X His; thioredoxin; made in house; host or cells: E. coli BL21(DE3)pLysS
# Method in brief: as §1
# [11] = target: T9, PIK3R3-N SH2 domain (Homo sapiens, UniProt Q92569); experiment: FP saturation binding assay; settings: high-confidence ErbB interactions
# T9 construct: 6X His; thioredoxin; made in house; host or cells: E. coli BL21(DE3)pLysS
# Method in brief: as §1
# [12] = target: T10, PIK3R1-C SH2 domain (Homo sapiens, UniProt P27986); experiment: FP saturation binding assay; settings: protein PIK3R1-C, high-confidence ErbB interactions, mean of replicate hits
# T10 construct: 6X His; thioredoxin; made in house; host or cells: E. coli BL21(DE3)pLysS
# Method in brief: as §1
# [13] = target: GRB7 SH2 domain (Homo sapiens, UniProt Q14451); experiment: FP saturation binding assay; settings: Mean KD (μM), protein GRB7; FP, high-confidence ErbB interactions; mean of replicate hits
# [14] = target: T11, PIK3R1-N SH2 domain (Homo sapiens, UniProt P27986); experiment: biochemical; assay type: binding; settings: protein PIK3R1-N; FP, high-confidence ErbB interactions; mean of replicate hits
# T11 construct: thioredoxin; made in house; host or cells: E. coli BL21(DE3)pLysS
# [15] = target: T12, PIK3R3-C SH2 domain (Homo sapiens, UniProt Q92569); experiment: biochemical; assay type: binding; settings: protein PIK3R3-C; FP, high-confidence ErbB interactions; mean of replicate hits
# T12 construct: thioredoxin; made in house; host or cells: E. coli BL21(DE3)pLysS
# [16] = target: T13, PIK3R1-NC tandem SH2 domains (Homo sapiens, UniProt P27986); experiment: FP saturation binding assay; settings: protein PIK3R1-NC; FP, high-confidence ErbB interactions; mean of replicate hits
# T13 construct: the tandem protein was included in our analysis with all internal amino acids linking the domains; 6X His; thioredoxin; made in house; host or cells: E. coli BL21(DE3)pLysS
# Method in brief: as §1
# [17] = target: T14, PLCG1-C SH2 domain (Homo sapiens, UniProt P19174); experiment: biochemical; assay type: binding; settings: protein PLCG1-C; high-confidence ErbB interactions; mean of replicate hits
# T14 construct: The 6X His-tagged SH2 domain proteins used in the assay, PLCG1-C, SHC4, VAV2; thioredoxin; made in house; host or cells: E. coli BL21(DE3)pLysS
# T14 sequence (P19174 668-756 limits assumed): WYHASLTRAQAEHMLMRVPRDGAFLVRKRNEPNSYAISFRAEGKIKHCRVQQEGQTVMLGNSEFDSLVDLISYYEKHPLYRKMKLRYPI
# [18] = tested on: TENC1 SH2 domain; experiment: FP saturation binding assay; settings: Tensin family SH2 domains
# [19] = target: T15, TNS1 SH2 domain (Homo sapiens, UniProt Q9HBL0); experiment: FP saturation binding assay; settings: Tensin family SH2 domains
# T15 sequence (Q9HBL0 1567-1676 limits assumed): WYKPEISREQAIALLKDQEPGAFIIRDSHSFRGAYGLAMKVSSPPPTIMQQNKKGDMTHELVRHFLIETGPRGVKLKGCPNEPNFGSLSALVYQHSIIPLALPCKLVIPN
# [20] = target: T16, TNS3 SH2 domain (Homo sapiens, UniProt Q68CZ2); experiment: FP saturation binding assay; settings: FP saturation assay; Tensin family SH2 domains
# T16 sequence (Q68CZ2 1172-1282 limits assumed): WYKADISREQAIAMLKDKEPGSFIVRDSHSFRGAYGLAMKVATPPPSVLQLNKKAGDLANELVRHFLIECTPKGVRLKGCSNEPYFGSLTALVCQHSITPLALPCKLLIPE
# [21] = protein PIK3R3-NC, FP, mean of replicate hits
# [22] = protein PIK3R3-N, FP, mean of replicate hits
# T11 sequence (P27986 333-428 limits assumed): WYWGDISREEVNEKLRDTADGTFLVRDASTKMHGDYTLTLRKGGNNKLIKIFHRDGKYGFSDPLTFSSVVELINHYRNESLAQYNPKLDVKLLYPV
# Chain of PIK3R2-N SH2 domain (O00459 330-425 limits assumed): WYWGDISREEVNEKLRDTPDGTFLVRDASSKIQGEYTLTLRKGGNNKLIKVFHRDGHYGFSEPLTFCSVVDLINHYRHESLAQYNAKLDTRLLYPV
# Chain of PIK3R2-NC tandem SH2 domains (O00459 330-716 limits assumed): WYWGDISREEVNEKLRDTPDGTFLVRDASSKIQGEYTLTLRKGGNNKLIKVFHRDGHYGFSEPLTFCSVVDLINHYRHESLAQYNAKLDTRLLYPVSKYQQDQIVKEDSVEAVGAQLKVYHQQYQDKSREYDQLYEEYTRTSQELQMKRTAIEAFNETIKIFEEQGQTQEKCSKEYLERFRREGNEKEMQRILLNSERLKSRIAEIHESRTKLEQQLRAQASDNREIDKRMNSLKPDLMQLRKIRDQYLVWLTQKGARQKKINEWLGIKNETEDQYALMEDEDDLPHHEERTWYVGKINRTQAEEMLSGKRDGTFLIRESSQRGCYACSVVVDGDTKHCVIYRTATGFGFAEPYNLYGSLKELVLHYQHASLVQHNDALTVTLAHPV
# T10 sequence (P27986 624-718 limits assumed): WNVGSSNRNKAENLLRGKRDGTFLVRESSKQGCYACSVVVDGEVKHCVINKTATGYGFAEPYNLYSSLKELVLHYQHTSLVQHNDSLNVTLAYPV
# Chain of GRB7 SH2 domain (Q14451 431-527 limits assumed): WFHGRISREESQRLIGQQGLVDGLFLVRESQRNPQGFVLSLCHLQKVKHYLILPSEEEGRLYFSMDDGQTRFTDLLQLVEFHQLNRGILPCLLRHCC
# T13 sequence (P27986 333-718 limits assumed): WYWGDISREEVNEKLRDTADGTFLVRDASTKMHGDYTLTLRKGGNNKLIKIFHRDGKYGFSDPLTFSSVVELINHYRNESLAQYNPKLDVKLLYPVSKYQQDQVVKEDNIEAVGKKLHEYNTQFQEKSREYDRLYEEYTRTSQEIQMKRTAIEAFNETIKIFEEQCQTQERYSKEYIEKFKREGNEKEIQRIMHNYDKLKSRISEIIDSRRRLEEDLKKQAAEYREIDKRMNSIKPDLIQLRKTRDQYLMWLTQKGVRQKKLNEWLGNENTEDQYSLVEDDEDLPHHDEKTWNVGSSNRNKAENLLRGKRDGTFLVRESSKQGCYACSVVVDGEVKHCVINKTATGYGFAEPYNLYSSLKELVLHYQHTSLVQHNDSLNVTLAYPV
# T4 sequence (P07947 158-255 limits assumed): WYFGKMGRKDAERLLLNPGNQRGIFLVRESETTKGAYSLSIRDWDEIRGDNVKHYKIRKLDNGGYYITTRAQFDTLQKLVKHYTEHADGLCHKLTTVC
# T8 sequence (Q13882 78-170 limits assumed): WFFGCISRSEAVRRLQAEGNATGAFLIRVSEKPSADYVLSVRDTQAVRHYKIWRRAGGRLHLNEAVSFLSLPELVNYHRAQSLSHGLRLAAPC
# T5 sequence (P06239 127-224 limits assumed): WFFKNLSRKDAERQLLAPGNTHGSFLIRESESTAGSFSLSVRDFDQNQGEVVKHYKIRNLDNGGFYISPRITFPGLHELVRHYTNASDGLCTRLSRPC
molecule,measurement,setting,value
CSCC[C@H](NC(=O)[C@@H](NC(=O)[C@H](Cc1ccc(OP(=O)(O)O)cc1)NC(=O)[C@H](C)NC(=O)[C@H](CCC(=O)O)NC(=O)[C@H](CC(=O)O)NC(=O)[C@@H](N)CC(C)C)C(C)C)C(=O)N[C@@H](C)C(=O)N[C@@H](CO)C(=O)N[C@H](C(=O)N[C@@H](CC(=O)O)C(=O)N[C@@H](CC(N)=O)C(=O)N[C@@H](CC(=O)O)C(=O)O)C(C)C [ErbB1 764 13-mer] (HELM PEPTIDE1{L.D.E.A.[O=C([C@H](Cc1ccc(OP(=O)(O)O)cc1)N[*:1])[*:2]].V.M.A.S.V.D.N.D}$$$$V2.0),Kd,[1],9700 nM
same,Kd,[2],2360 nM
same,Kd,[3],3070 nM
same,Kd,"[4]; Protein PIK3R3-NC, FP saturation binding, mean over replicate hits",1910 nM
CSCC[C@H](NC(=O)[C@H](CC(C)C)NC(=O)[C@H](C)NC(=O)[C@H](CCCNC(=N)N)NC(=O)[C@H](Cc1ccc(OP(=O)(O)O)cc1)NC(=O)[C@H](Cc1ccccc1)NC(=O)[C@H](CC(N)=O)NC(=O)[C@H](CO)NC(=O)[C@@H](N)CC(=O)O)C(=O)N[C@@H](CC(=O)O)C(=O)N[C@@H](CCC(=O)O)C(=O)N[C@@H](CCC(=O)O)C(=O)N[C@@H](CC(=O)O)C(=O)O [ErbB1 998 13-mer] (HELM PEPTIDE1{D.S.N.F.[O=C([C@H](Cc1ccc(OP(=O)(O)O)cc1)N[*:1])[*:2]].R.A.L.M.D.E.E.D}$$$$V2.0),Kd,[1],2850 nM
same,Kd,[5],12600 nM
same,Kd,"[6]; Protein YES1, FP saturation binding, mean over replicate hits",7050 nM
same,Kd,[7],5790 nM
same,Kd,[8],13100 nM
same,Kd,[9],3980 nM
CC[C@H](C)[C@H](NC(=O)[C@H](CC(C)C)NC(=O)[C@H](Cc1ccc(OP(=O)(O)O)cc1)NC(=O)[C@H](CCC(=O)O)NC(=O)[C@H](CC(=O)O)NC(=O)[C@H](C)NC(=O)[C@@H](N)CC(=O)O)C(=O)N1CCC[C@H]1C(=O)N[C@@H](CCC(N)=O)C(=O)N[C@@H](CCC(N)=O)C(=O)NCC(=O)N[C@@H](Cc1ccccc1)C(=O)N[C@@H](CC(=O)O)C(=O)O [ErbB1 1016 13-mer],Kd,[1],1670 nM
same,Kd,[2],2480 nM
same,Kd,[3],2430 nM
same,Kd,"[10]; Protein PTK6, FP saturation binding, mean over replicate hits",3040 nM
same,Kd,[5],1100 nM
same,Kd,"[11]; Protein PIK3R3-N, FP saturation binding, mean over replicate hits",3210 nM
CSCC[C@H](NC(=O)[C@H](Cc1ccc(O)cc1)NC(=O)[C@H](CCC(=O)O)NC(=O)[C@H](Cc1ccc(OP(=O)(O)O)cc1)NC(=O)[C@H](CC(=O)O)NC(=O)[C@H](CCC(=O)O)NC(=O)[C@H](CC(=O)O)NC(=O)[C@@H]1CCCN1)C(=O)N[C@@H](CC(N)=O)C(=O)N[C@@H](CCCNC(=N)N)C(=O)N[C@@H](CCC(N)=O)C(=O)N[C@@H](CCCNC(=N)N)C(=O)N[C@@H](CC(=O)O)C(=O)O [ErbB3 1260 13-mer] (HELM PEPTIDE1{P.D.E.D.[O=C([C@H](Cc1ccc(OP(=O)(O)O)cc1)N[*:1])[*:2]].E.Y.M.N.R.Q.R.D}$$$$V2.0),Kd,[12],470 nM
same,Kd,[13],0.1 µM
same,Kd,[14],480 nM
CSCC[C@H](NC(=O)[C@H](C)NC(=O)[C@H](C)NC(=O)[C@H](Cc1ccc(OP(=O)(O)O)cc1)NC(=O)[C@H](CC(=O)O)NC(=O)CNC(=O)CNC(=O)[C@@H]1CCCN1)C(=O)NCC(=O)N[C@@H](C)C(=O)N[C@@H](CS)C(=O)N1CCC[C@H]1C(=O)N[C@@H](CC(=O)O)C(=O)O [ErbB3 1276 13-mer] (HELM PEPTIDE1{P.G.G.D.[O=C([C@H](Cc1ccc(OP(=O)(O)O)cc1)N[*:1])[*:2]].A.A.M.G.A.C.P.D}$$$$V2.0),Kd,[12],2300 nM
same,Kd,[4]; [21],3710 nM
same,Kd,[11]; [22],2460 nM
same,Kd,[15],9860 nM
same,Kd,[14],6000 nM
CSCC[C@H](NC(=O)[C@@H]1CCCN1C(=O)[C@@H](NC(=O)[C@H](Cc1ccc(OP(=O)(O)O)cc1)NC(=O)[C@H](C)NC(=O)[C@@H]1CCCN1C(=O)[C@@H]1CCCN1C(=O)[C@@H]1CCCN1)[C@@H](C)O)C(=O)N[C@@H](CO)C(=O)NCC(=O)N[C@@H](CC(N)=O)C(=O)N[C@@H](CCC(N)=O)C(=O)N[C@@H](CC(=O)O)C(=O)O [ErbB4 1056 13-mer] (HELM PEPTIDE1{P.P.P.A.[O=C([C@H](Cc1ccc(OP(=O)(O)O)cc1)N[*:1])[*:2]].T.P.M.S.G.N.Q.D}$$$$V2.0),Kd,[2],2960 nM
same,Kd,[12],160 nM
same,Kd,[4]; [21],230 nM
same,Kd,[16],210 nM
same,Kd,[14],2570 nM
CC(C)C[C@H](NC(=O)[C@H](Cc1ccc(O)cc1)NC(=O)[C@H](CC(C)C)NC(=O)[C@@H]1CCCN1C(=O)[C@H](CCC(=O)O)NC(=O)[C@H](CC(N)=O)NC(=O)[C@@H](NC(=O)[C@H](Cc1ccc(OP(=O)(O)O)cc1)NC(=O)[C@H](CCC(=O)O)NC(=O)[C@H](CC(=O)O)NC(=O)[C@H](CCC(=O)O)NC(=O)[C@H](C)N)C(C)C)C(=O)N[C@@H](CC(=O)O)C(=O)O [ErbB4 1202 13-mer] (HELM PEPTIDE1{A.E.D.E.[O=C([C@H](Cc1ccc(OP(=O)(O)O)cc1)N[*:1])[*:2]].V.N.E.P.L.Y.L.D}$$$$V2.0),Kd,[1],1460 nM
same,Kd,[17],1550 nM
same,Kd,[3],4970 nM
same,Kd,"[10]; protein PTK6, mean of replicate hits",1190 nM
same,Kd,[4]; [21],2860 nM
same,Kd,[11]; [22],1860 nM
same,Kd,"[6]; protein YES1, mean of replicate hits",1610 nM
same,Kd,[16],1540 nM
same,Kd,[13],2.06 µM
same,Kd,[14],1350 nM
LDEApYVMASVDNd [ErbB1 pY764],affinity of recruitment of TENC1,[18],relatively high affinity
same,affinity of recruitment of TNS1,[19],relatively high affinity
same,affinity of recruitment of TNS3,[20],relatively high affinity
